From patent US20140263071A1, “METHOD FOR COLLECTING METALS” (CHEMEC OY AB, priority 2011, published 2014)
Like-named read-outs stand apart in the source and are kept apart here. Marks after values point to notes of the source that are not given here.

Legend:
[1] = Solubility of the compounds, molybdenum blue method, UV/Vis 880 nm (Example 6); type: physicochemical; settings: saturated aqueous solution
From the text: The low solubility is achieved by using long carbon chain(s) or aromatic ring(s) in the bisphosphonate structure I. Advantageously, compound I contains 7-16 carbon atoms either in chain, branched chain or cyclic structure or in combination of these structural units between A and X, and preferably in the chain starting from the P-C-P bridging carbon and the number of heteroatomic functional groups excluding the phosphorous functionalities are limited to two or three groups. The solubility decreases even more if compound I contains functional groups which are capable to form twitter ions with each other. Typical examples of twitter ions are acids (e.g., —CO2H or —PO3H2) and bases (amines) in the same molecule. Solubilities of selected bisphosphonate compounds I were determined with UV/Vis spectrophotometer at 880 nm using molybdenum blue method (Finnish Standard Association SFS 3026: Determination of phosphate in water. Finnish Standard Association SFS, Helsinki Finland, 1986).
Solubilities of selected compounds were determined with UV/Vis Spectrophotometer at 880 nm using molybdenum blue method from saturated aqueous samples solutions (Finnish Standard Association SFS 3026: Determination of phosphate in water. Finnish Standard Association SFS, Helsinki Finland, 1986).

[2] = Effect of contact time on expulsion percent, Pb^2+ and Hg^2+ spiked TS 5, 1a 100 mg/100 ml (Example 13)
Procedure: A test solution containing 1-15 mg/l of Al^3+, Fe^2/3+, Mg^2+, Mn^2+, Ni^2+ and Zn^2+; 0.1-0.9 mg/l of Ca^2+ and Na^+; and trace amount of other Cr^3+, Co^2+, Cu^2+, Eu^3+, La^3+, Nd^3+, Y^3+, UO2^2+ and Nb^5+ cations were prepared.
Effect of contact time to selected metal expulsion per cents was tested using TS 5 with comlexation agent 1a. TS 5 (100 ml), spiked with known amounts of lead (Pb^2+) and mercury (Hg^2+) cations, was stirred with 1a (100 mg) for selected times followed by separation of 1a by filtration trough 0.2 μm syringe filter. Metal concentrations after 5 min, 15 min, 30 min, 1 h, 2 h, 3.5 h, 6.5 h and 29.5 h were determined by using ICP-AES analysis.

[3] = Purification of water draining through the dump site, TS 1 (Example 16)
Procedure: Drainage water sample was taken from dumping site containing polluted soil: ca. 200 mg/l of Ca^2+ and Mg^2+; 0.05-0.3 mg/l of Al^3+, Ba^2+, Mn^2+, Mo^6+, Ni^2+ and Zn^2+; ≦0.05 mg/l of As^3+ (or As^5+), Cd^2+ and Pb^2+; pH 3.53.
Test Sample 1 (TS 1, 100 ml), which initial metal cation concentrations were determined by using ICP-AES method, was treated with 1a (1.0 g) with stirring for 24 h. After filtration trough 0.2 μm syringe filter metal concentrations in solution were determined and removal per cents were calculated. Since TS 1 contained only small amounts of As, Cd and Pb, sample was spiked with known amounts of these metal cations. The spiked sample (100 ml) was treated with 1a (1 g) as original TS 1 sample.

NCCCCCCCCCCC(O)(P(=O)(O)O)P(=O)(O)O [Compound 1a, 11-Amino-1-hydroxyundecane-1,1-diyldiphosphonic acid]
solubility [1]: 59 mg/L | solubility ([1]; read-out: mg/l P (solubility calculated as elemental phosphorus)): 10 mg/L | Expulsion [%] ([2]; Al^3+, 5 min): 8.3% | Expulsion [%] ([2]; Al^3+, 15 min): 5.5% | Expulsion [%] ([2]; Al^3+, 30 min): 7.1% | Expulsion [%] ([2]; Al^3+, 60 min): 5.9% | Expulsion [%] ([2]; Al^3+, 120 min): 8.7% | Expulsion [%] ([2]; Al^3+, 210 min): 18.5% | Expulsion [%] ([2]; Al^3+, 390 min): 26.0% | Expulsion [%] ([2]; Al^3+, 1770 min): 27.2% | Expulsion [%] ([2]; Ca^2+, 5 min): 2.7% | Expulsion [%] ([2]; Ca^2+, 15 min): 0% | Expulsion [%] ([2]; Ca^2+, 30 min): 0% | Expulsion [%] ([2]; Ca^2+, 60 min): 0% | Expulsion [%] ([2]; Ca^2+, 120 min): 0% | Expulsion [%] ([2]; Ca^2+, 210 min): 0% | Expulsion [%] ([2]; Ca^2+, 390 min): 9.8% | Expulsion [%] ([2]; Ca^2+, 1770 min): 18.7% | Expulsion [%] ([2]; Cd^2+, 5 min): 2.9% | Expulsion [%] ([2]; Cd^2+, 15 min): 3.9% | Expulsion [%] ([2]; Cd^2+, 30 min): 5.1% | Expulsion [%] ([2]; Cd^2+, 60 min): 7.5% | Expulsion [%] ([2]; Cd^2+, 120 min): 10.9% | Expulsion [%] ([2]; Cd^2+, 210 min): 15.0% | Expulsion [%] ([2]; Cd^2+, 390 min): 28.1% | Expulsion [%] ([2]; Cd^2+, 1770 min): 36.6% | Expulsion [%] ([2]; Fe^2/3+, 5 min): 0% | Expulsion [%] ([2]; Fe^2/3+, 15 min): 0.7% | Expulsion [%] ([2]; Fe^2/3+, 30 min): 0% | Expulsion [%] ([2]; Fe^2/3+, 60 min): 3.0% | Expulsion [%] ([2]; Fe^2/3+, 120 min): 6.7% | Expulsion [%] ([2]; Fe^2/3+, 210 min): 8.9% | Expulsion [%] ([2]; Fe^2/3+, 390 min): 20.7% | Expulsion [%] ([2]; Fe^2/3+, 1770 min): 19.3% | Expulsion [%] ([2]; Hg^2+, 5 min): 59.9% | Expulsion [%] ([2]; Hg^2+, 15 min): 60.4% | Expulsion [%] ([2]; Hg^2+, 30 min): 58.5% | Expulsion [%] ([2]; Hg^2+, 60 min): 56.4% | Expulsion [%] ([2]; Hg^2+, 120 min): 57.1% | Expulsion [%] ([2]; Hg^2+, 210 min): 55.7% | Expulsion [%] ([2]; Hg^2+, 390 min): 57.0% | Expulsion [%] ([2]; Hg^2+, 1770 min): 49.6% | Expulsion [%] ([2]; Mg^2+, 5 min): 1.4% | Expulsion [%] ([2]; Mg^2+, 15 min): 1.8% | Expulsion [%] ([2]; Mg^2+, 30 min): 0.2% | Expulsion [%] ([2]; Mg^2+, 60 min): 4.4% | Expulsion [%] ([2]; Mg^2+, 120 min): 5.8% | Expulsion [%] ([2]; Mg^2+, 210 min): 6.9% | Expulsion [%] ([2]; Mg^2+, 390 min): 16.4% | Expulsion [%] ([2]; Mg^2+, 1770 min): 19.8% | Expulsion [%] ([2]; Mn^2+, 5 min): 3.4% | Expulsion [%] ([2]; Mn^2+, 15 min): 4.3% | Expulsion [%] ([2]; Mn^2+, 30 min): 4.3% | Expulsion [%] ([2]; Mn^2+, 60 min): 6.3% | Expulsion [%] ([2]; Mn^2+, 120 min): 10.5% | Expulsion [%] ([2]; Mn^2+, 210 min): 13.1% | Expulsion [%] ([2]; Mn^2+, 390 min): 27.0% | Expulsion [%] ([2]; Mn^2+, 1770 min): 29.1% | Expulsion [%] ([2]; Ni^2+, 5 min): 1.4% | Expulsion [%] ([2]; Ni^2+, 15 min): 1.8% | Expulsion [%] ([2]; Ni^2+, 30 min): 1.4% | Expulsion [%] ([2]; Ni^2+, 60 min): 4.1% | Expulsion [%] ([2]; Ni^2+, 120 min): 5.0% | Expulsion [%] ([2]; Ni^2+, 210 min): 7.8% | Expulsion [%] ([2]; Ni^2+, 390 min): 13.2% | Expulsion [%] ([2]; Ni^2+, 1770 min): 15.5% | Expulsion [%] ([2]; Pb^2+, 5 min): 28.5% | Expulsion [%] ([2]; Pb^2+, 15 min): 34.7% | Expulsion [%] ([2]; Pb^2+, 30 min): 56.3% | Expulsion [%] ([2]; Pb^2+, 60 min): 49.4% | Expulsion [%] ([2]; Pb^2+, 120 min): 65.7% | Expulsion [%] ([2]; Pb^2+, 210 min): 89.8% | Expulsion [%] ([2]; Pb^2+, 390 min): 94.6% | Expulsion [%] ([2]; Pb^2+, 1770 min): 98.1% | Expulsion [%] ([2]; Zn^2+, 5 min): 2.5% | Expulsion [%] ([2]; Zn^2+, 15 min): 3.7% | Expulsion [%] ([2]; Zn^2+, 30 min): 4.9% | Expulsion [%] ([2]; Zn^2+, 60 min): 6.5% | Expulsion [%] ([2]; Zn^2+, 120 min): 9.8% | Expulsion [%] ([2]; Zn^2+, 210 min): 13.9% | Expulsion [%] ([2]; Zn^2+, 390 min): 27.1% | Expulsion [%] ([2]; Zn^2+, 1770 min): 30.8% | Expulsion [%] ([3]; Spiked TS 1, Al^3+): 67% | Expulsion [%] ([3]; Spiked TS 1, As^3/5+): 0% | Expulsion [%] ([3]; Spiked TS 1, Ba^2+): 26% | Expulsion [%] ([3]; Spiked TS 1, Ca^2+): 48% | Expulsion [%] ([3]; Spiked TS 1, Cd^2+): 96% | Expulsion [%] ([3]; Spiked TS 1, Mg^2+): 78% | Expulsion [%] ([3]; Spiked TS 1, Mn^2+): ≥ 51^2) % | Expulsion [%] ([3]; Spiked TS 1, Ni^2+): 33% | Expulsion [%] ([3]; Spiked TS 1, Pb^2+): 94% | Expulsion [%] ([3]; Spiked TS 1, Zn^2+): 90% | Expulsion [%] ([3]; TS 1, Al^3+): 76% | Expulsion [%] ([3]; TS 1, Ba^2+): 32% | Expulsion [%] ([3]; TS 1, Ca^2+): 51% | Expulsion [%] ([3]; TS 1, Mg^2+): 81% | Expulsion [%] ([3]; TS 1, Mn^2+): ≥ 57^2) % | Expulsion [%] ([3]; TS 1, Ni^2+): 50% | Expulsion [%] ([3]; TS 1, Zn^2+): 89%
